“Also recorded” adds a separate entry of the source.
Assays:
[1] = test system: E. coli cells; conditions: ref K. S. Jakes, unpublished data; listed as T100–120; cited from earlier work
[2] = target: TolC (Escherichia coli, UniProt P02930); conditions: BLM; concentration not given; listed as synthetic peptide 100–120
[3] = Far-UV circular dichroism, helical content of T-domain peptides; format: physicochemical
[4] = test system: E. coli, TolC Gly43 mutants; conditions: cited from earlier work
[5] = cytoplasmic membrane; cited from earlier work

Chain of TolC (P02930 23-493): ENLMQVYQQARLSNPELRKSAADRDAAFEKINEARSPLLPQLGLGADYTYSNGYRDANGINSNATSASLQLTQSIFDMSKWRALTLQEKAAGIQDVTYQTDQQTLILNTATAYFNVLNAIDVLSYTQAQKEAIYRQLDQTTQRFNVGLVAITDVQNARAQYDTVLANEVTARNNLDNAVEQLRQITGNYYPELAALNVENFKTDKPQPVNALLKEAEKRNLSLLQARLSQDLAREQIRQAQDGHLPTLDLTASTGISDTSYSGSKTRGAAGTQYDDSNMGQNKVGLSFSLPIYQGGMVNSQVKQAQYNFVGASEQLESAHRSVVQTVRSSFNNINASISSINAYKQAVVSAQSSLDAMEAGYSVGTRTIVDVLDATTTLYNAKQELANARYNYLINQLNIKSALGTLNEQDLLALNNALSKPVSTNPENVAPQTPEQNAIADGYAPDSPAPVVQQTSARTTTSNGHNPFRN

| Molecule | protection of E. coli cells against colicin E1 cytotoxicity [1] | occlusion of TolC channels, in words [2] | no. of residues, helix ([3]; from helical content by far-UV CD, DichroWeb, tags assumed unordered) | no. of residues, unordered ([3]; total number in peptide excluding tags minus residues in helices) | killing efficiency of colicin E1 on TolC Gly43 mutants ([4]; larger side chains at TolC residue 43) | decrease in colicin E1 cytotoxicity by TolC G43 mutation ([4]; mutation to residue with larger side chains) | channel conductance [5] |
| --- | --- | --- | --- | --- | --- | --- | --- |
| H-EALRHNASRTPSATELAHANN-OH [100–120 ^e] | inability of the synthetic peptide T100–120, which lacks ordered secondary structure, to occlude TolC channels, and to protect E. coli cells; also recorded: does not protect E. coli cells | did not occlude TolC channels | 0 residues | 21 residues | – | – | – |
| colicin E1: 522-residue channel-forming colicin (protein, UniProt P02978 1-522, looked up) Colicin-E1: METAVAYYKDGVPYDDKGQVIITLLNGTPDGSGSGGGGGKGGSKSESSAAIHATAKWSTAQLKKTQAEQAARAKAAAEAQAKAKANRDALTQRLKDIVNEALRHNASRTPSATELAHANNAAMQAEDERLRLAKAEEKARKEAEAAEKAFQEAEQRRKEIEREKAETERQLKLAEAEEKRLAALSEEAKAVEIAQKKLSAAQSEVVKMDGEIKTLNSRLSSSIHARDAEMKTLAGKRNELAQASAKYKELDELVKKLSPRANDPLQNRPFFEATRRRVGAGKIREEKQKQVTASETRINRINADITQIQKAISQVSNNRNAGIARVHEAEENLKKAQNNLLNSQIKDAVDATVSFYQTLTEKYGEKYSKMAQELADKSKGKKIGNVNEALAAFEKYKDVLNKKFSKADRDAIFNALASVKYDDWAKHLDQFAKYLKITGHVSFGYDVVSDILKIKDTGDWKPLFLTLEKKAADAGVSYVVALLFSLLAGTTLGIWGIAIVTGILCSYIDKNKLNTINEVLGI | – | – | – | – | reduced the killing efficiency | ≤ 1000 -fold | approximately 10^6 ions/s per channel |
